Measurements taken from patent publication US10479780B2, “Aminopyrazole derivatives” (Chugai Seiyaku Kabushiki Kaisha, priority 2015, dated 2019).

Key:
Format in all cases: biochemical
human Yes1 enzyme = molecular target: T1, human Yes1 enzyme (Homo sapiens, UniProt P07947); assay: Yes1 enzyme inhibitory activity (time-resolved fluorometry, biotinylated peptide phosphorylation); conditions: read-out: YES_IC50
T1 construct: made in house
Procedure, shortened: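 Inhibition was expressed against a compound-free control to give IC50, using TR-FRET read-out (Eu-cryptate anti-pTyr antibody, streptavidin-XL665).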

human Lck enzyme = molecular target: T2, human Lck enzyme (Homo sapiens, UniProt P06239); assay: Lck enzyme inhibitory activity (time-resolved fluorometry, biotinylated peptide phosphorylation); conditions: read-out: LCK_IC50
T2 construct: purchased Carna Biosciences, Inc. 08-170
T2 sequence (P06239 whole entry): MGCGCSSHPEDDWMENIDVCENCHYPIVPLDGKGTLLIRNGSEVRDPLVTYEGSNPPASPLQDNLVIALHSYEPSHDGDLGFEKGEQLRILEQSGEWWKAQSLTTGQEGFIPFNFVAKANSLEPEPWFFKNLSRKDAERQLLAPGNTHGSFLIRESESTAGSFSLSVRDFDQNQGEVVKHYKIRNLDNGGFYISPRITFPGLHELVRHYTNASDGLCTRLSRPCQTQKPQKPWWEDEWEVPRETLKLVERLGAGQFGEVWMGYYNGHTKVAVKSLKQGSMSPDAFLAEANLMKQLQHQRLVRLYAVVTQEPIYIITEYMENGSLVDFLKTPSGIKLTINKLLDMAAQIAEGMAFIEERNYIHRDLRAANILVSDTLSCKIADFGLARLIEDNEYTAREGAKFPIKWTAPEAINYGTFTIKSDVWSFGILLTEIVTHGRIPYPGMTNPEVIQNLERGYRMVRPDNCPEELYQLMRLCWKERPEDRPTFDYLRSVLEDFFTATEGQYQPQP
Procedure, shortened: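 Readout pairs a europium cryptate-labelled anti-phosphotyrosine antibody with XL665-streptavidin, measured by time-resolved fluorescence. IC50 derived from percent inhibition against untreated controls.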

human Src enzyme = molecular target: T3, human Src enzyme (Homo sapiens, UniProt P12931); assay: Src enzyme inhibitory activity (time-resolved fluorometry, biotinylated peptide phosphorylation); conditions: read-out: SRC_IC50
T3 construct: purchased Carna Biosciences, Inc. 08-173
T3 sequence (P12931 whole entry): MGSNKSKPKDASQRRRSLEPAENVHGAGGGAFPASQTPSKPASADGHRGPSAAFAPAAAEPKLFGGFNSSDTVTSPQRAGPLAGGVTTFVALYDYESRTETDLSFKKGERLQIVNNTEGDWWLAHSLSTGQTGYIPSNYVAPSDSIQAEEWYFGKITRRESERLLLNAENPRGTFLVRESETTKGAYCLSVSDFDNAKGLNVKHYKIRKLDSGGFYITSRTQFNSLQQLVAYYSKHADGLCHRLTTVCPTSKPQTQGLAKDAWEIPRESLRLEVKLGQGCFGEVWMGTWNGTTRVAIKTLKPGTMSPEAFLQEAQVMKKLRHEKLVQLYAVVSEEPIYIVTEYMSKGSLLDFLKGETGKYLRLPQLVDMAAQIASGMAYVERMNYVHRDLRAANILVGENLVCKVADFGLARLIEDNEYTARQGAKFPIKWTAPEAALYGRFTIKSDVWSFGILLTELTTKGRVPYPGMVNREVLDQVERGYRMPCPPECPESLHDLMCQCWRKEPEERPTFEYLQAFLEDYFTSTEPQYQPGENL
Procedure, shortened: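 Compounds were tested for blocking tyrosine phosphorylation of a biotinylated peptide substrate by recombinant human Src. Phosphorylated product was quantified by time-resolved fluorometry using europium cryptate and XL665 conjugates, and IC50 was calculated against the compound-free control.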

T1 sequence (P07947 whole entry): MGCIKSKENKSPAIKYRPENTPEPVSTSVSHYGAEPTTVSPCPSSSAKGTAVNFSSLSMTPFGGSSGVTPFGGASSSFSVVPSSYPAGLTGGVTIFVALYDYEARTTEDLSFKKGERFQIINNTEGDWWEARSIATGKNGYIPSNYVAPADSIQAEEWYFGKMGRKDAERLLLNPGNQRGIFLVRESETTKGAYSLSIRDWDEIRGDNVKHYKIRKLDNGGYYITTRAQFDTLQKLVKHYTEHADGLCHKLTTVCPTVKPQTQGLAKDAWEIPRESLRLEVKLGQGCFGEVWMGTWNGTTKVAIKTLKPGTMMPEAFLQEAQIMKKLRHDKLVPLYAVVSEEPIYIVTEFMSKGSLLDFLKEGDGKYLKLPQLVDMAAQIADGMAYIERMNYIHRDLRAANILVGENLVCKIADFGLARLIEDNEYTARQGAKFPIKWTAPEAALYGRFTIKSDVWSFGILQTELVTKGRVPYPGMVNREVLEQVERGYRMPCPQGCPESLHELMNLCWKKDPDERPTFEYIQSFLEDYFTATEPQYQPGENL

| Compound | IC50 (human Yes1 enzyme) | IC50 (human Lck enzyme) | IC50 (human Src enzyme) |
| --- | --- | --- | --- |
| Cc1cc(Oc2c(F)cccc2F)ncc1-n1ncc(C(=O)c2cc3cc(F)c(N(C(C)C)S(C)(=O)=O)cc3[nH]2)c1N [Example 5-1-067, N-[2-[5-amino-1-[6-(2,6-difluorophenoxy)-4-methylpyridin-3-yl]pyrazole-4-carbonyl]-5-fluoro-1H-indol-6-yl]-N-propan-2-ylmethanesulfonamide] | 2.3 nM | 5.6 nM | 62 nM |
| Cc1cc(Oc2ccccc2F)ccc1-n1ncc(C(=O)c2cc3cc(OCC(F)F)c(C4CCN(C(=O)OC(C)(C)C)CC4)cc3[nH]2)c1N [Example 5-1-068, tert-Butyl 4-[2-[5-amino-1-[4-(2-fluorophenoxy)-2-methylphenyl]pyrazole-4-carbonyl]-5-(2,2-difluoroethoxy)-1H-indol-6-yl] piperidine-1-carboxylate] | 5.6 nM | 8.4 nM | 15 nM |
| Cc1cc(Oc2c(F)cccc2F)ncc1-n1ncc(C(=O)c2cc3cc(OCC(F)F)c(C4CCN(C(=O)OC(C)(C)C)CC4)cc3[nH]2)c1N [Example 5-1-069, tert-Butyl 4-[2-[5-amino-1-[6-(2,6-difluorophenoxy)-4-methylpyridin-3-yl]pyrazole-4-carbonyl]-5-(2,2-difluoroethoxy)-1H-indol-6-yl]piperidine-1-carboxylate] | 18 nM | 20 nM | 33 nM |
| Cc1cc(Oc2ccccc2F)ccc1-n1ncc(C(=O)c2cc3cc(OCC(F)F)c(Br)cc3[nH]2)c1N [Example 5-1-070, [5-amino-1-[4-(2-fluorophenoxy)-2-methylphenyl]pyrazol-4-yl]-[6-bromo-5-(2,2-difluoroethoxy)-1H-indol-2-yl]methanone] | 0.85 nM | 12 nM | 13 nM |
| CCOc1cc2cc(C(=O)c3cnn(-c4ccc(Oc5ccccc5F)cc4C)c3N)[nH]c2cc1C1CCN(S(=O)(=O)C2CC2)CC1 [Example 5-1-071, [5-amino-1-[4-(2-fluorophenoxy)-2-methylphenyl]pyrazol-4-yl]-[6-(1-cyclopropylsulfonylpiperidin-4-yl)-5-ethoxy-1H-indol-2-yl]methanone] | 28 nM | 61 nM | 67 nM |
| Cc1cc(Oc2c(F)cccc2F)ncc1-n1ncc(C(=O)c2cc3cc(OC(F)F)c(-n4c(C)cc(=O)[nH]c4=O)cc3[nH]2)c1N [Example 5-1-072, 1-[2-[5-amino-1-[6-(2,6-difluorophenoxy)-4-methylpyridin-3-yl]pyrazole-4-carbonyl]-5-(difluoromethoxy)-1H-indol-6-yl]-6-methylpyrimidine-2,4-dione] | 7.7 nM | 8.2 nM | 36 nM |
| CCOc1cc2cc(C(=O)c3cnn(-c4ccc(Oc5ccccc5F)cc4C)c3N)[nH]c2cc1C1CCN(S(C)(=O)=O)CC1 [Example 5-1-073, [5-amino-1-[4-(2-fluorophenoxy)-2-methylphenyl]pyrazol-4-yl]-[5-ethoxy-6-(1-methylsulfonylpiperidin-4-yl)-1H-indol-2-yl] methanone] | 9.7 nM | 32 nM | 42 nM |
| Cc1cc(Oc2c(F)cccc2F)ncc1-n1ncc(C(=O)c2cc3cc(OC(F)F)c(N)cc3[nH]2)c1N [Example 5-1-074, [6-amino-5-(difluoromethoxy)-1H-indol-2-yl]-[5-amino-1-[6-(2,6-difluorophenoxy)-4-methylpyridin-3-yl]pyrazol-4-yl]methanone] | 1.6 nM | 3.2 nM | 25 nM |
| Cc1cc(Oc2c(F)cccc2F)ncc1-n1ncc(C(=O)c2cc3cc(OC(F)F)c(N4CCN(S(C)(=O)=O)CC4)cc3[nH]2)c1N [Example 5-1-075, [5-amino-1-[6-(2,6-difluorophenoxy)-4-methylpyridin-3-yl]pyrazol-4-yl]-[5-(difluoromethoxy)-6-(4-methylsulfonylpiperazin-1-yl)-1H-indol-2-yl]methanone] | 2.8 nM | 18 nM | 73 nM |
| Cc1cc(Oc2ccccc2F)cc(F)c1-n1ncc(C(=O)c2cc3cc(OC(F)F)c(NS(C)(=O)=O)cc3[nH]2)c1N [Example 5-1-076, N-[2-[5-amino-1-[2-fluoro-4-(2-fluorophenoxy)-6-methylphenyl]pyrazole-4-carbonyl]-5-(difluoromethoxy)-1H-indol-6-yl] methanesulfonamine] | 2.8 nM | 16 nM | 120 nM |
| Cc1cc2cc(C(=O)c3cnn(-c4ccc(Oc5ccccc5F)cc4C)c3N)[nH]c2cc1N1CCC(N2CCOCC2)CC1 [Example 5-1-077, [5-amino-1-[4-(2-fluorophenoxy)-2-methylphenyl]pyrazol-4-yl]-[5-methyl-6-(4-morpholin-4-ylpiperidin-1-yl)-1H-indol-2-yl] methanone] | 1 nM | 7.1 nM | 42 nM |
| Cc1cc2cc(C(=O)c3cnn(-c4cnc(Oc5ccccc5F)cc4C)c3N)[nH]c2cc1N1CCC(N2CCOCC2)CC1 [Example 5-1-078, [5-amino-1-[6-(2-fluorophenoxy)-4-methylpyridin-3-yl]pyrazol-4-yl]-[5-methyl-6-(4-morpholin-4-ylpiperidin-1-yl)-1H-indol-2-yl]methanone] | 0.28 nM | 2.4 nM | 10 nM |
| Cc1cc(Oc2c(F)cccc2F)ncc1-n1ncc(C(=O)c2cc3cc(OC(F)F)c(NC4CN(S(C)(=O)=O)C4)cc3[nH]2)c1N [Example 5-1-079, [5-amino-1-[6-(2,6-difluorophenoxy)-4-methylpyridin-3-yl]pyrazol-4-yl]-[5-(difluoromethoxy)-6-[(1-methylsulfonylazetidin-3-yl)amino]-1H-indol-2-yl]methanone] | 1 nM | 3.8 nM | 20 nM |
| Cc1cc(Oc2c(F)cccc2F)ncc1-n1ncc(C(=O)c2cc3cc(OCC(F)F)c(Br)cc3[nH]2)c1N [Example 5-1-080, [5-amino-1-[6-(2,6-difluorophenoxy)-4-methylpyridin-3-yl]pyrazol-4-yl]-[6-bromo-5-(2,2-difluoroethoxy)-1H-indol-2-yl]methanone] | 3.3 nM | 14 nM | 37 nM |
| Cc1cc2cc(C(=O)c3cnn(-c4cnc(Oc5cc(F)ccc5F)cc4C)c3N)[nH]c2cc1NS(C)(=O)=O [Example 5-1-081, N-[2-[5-amino-1-[6-(2,5-difluorophenoxy)-4-methylpyridin-3-yl]pyrazole-4-carbonyl]-5-methyl-1H-indol-6-yl]methanesulfonamide] | 2.4 nM | 6.4 nM | 110 nM |
| Cc1cc(Oc2ccccc2F)ccc1-n1ncc(C(=O)c2cc3cc(OC(F)F)c(Br)cc3[nH]2)c1N [Example 5-1-082, [5-amino-1-[4-(2-fluorophenoxy)-2-methylphenyl]pyrazol-4-yl]-[6-bromo-5-(difluoromethoxy)-1H-indol-2-yl]methanone] | 1.9 nM | 11 nM | 26 nM |
| Cc1cc(Oc2ccccc2F)ccc1-n1ncc(C(=O)c2cc3cc(OC(F)F)c(N)cc3[nH]2)c1N [Example 5-1-083, [6-amino-5-(difluoromethoxy)-1H-indol-2-yl]-[5-amino-1-[4-(2-fluorophenoxy)-2-methylphenyl]pyrazol-4-yl]methanone] | 0.72 nM | 7 nM | 7.2 nM |
| Cc1cc2cc(C(=O)c3cnn(-c4c(C)cc(Oc5ccccc5F)cc4F)c3N)[nH]c2cc1N1CCOCC1 [Example 5-1-084, [5-amino-1-[2-fluoro-4-(2-fluorophenoxy)-6-methylphenyl]pyrazol-4-yl]-(5-methyl-6-morpholin-4-yl-1H-indol-2-yl)methanone] | 4.1 nM | 4.5 nM | 34 nM |
| Cc1cc2cc(C(=O)c3cnn(-c4c(C)cc(Oc5ccccc5F)cc4F)c3N)[nH]c2cc1N1CCC(N2CCOCC2)CC1 [Example 5-1-085, [5-amino-1-[2-fluoro-4-(2-fluorophenoxy)-6-methylphenyl]pyrazol-4-yl]-[5-methyl-6-(4-morpholin-4-ylpiperidin-1-yl)-1H-indol-2-yl] methanone] | 2.3 nM | 2 nM | 21 nM |
| Cc1cc2cc(C(=O)c3cnn(-c4ccc(Oc5ccccc5F)cc4C)c3N)[nH]c2cc1C1CCN(S(C)(=O)=O)CC1 [Example 5-1-086, [5-amino-1-[4-(2-fluorophenoxy)-2-methylphenyl]pyrazol-4-yl]-[5-methyl-6-(1-methylsulfonylpiperidin-4-yl)-1H-indol-2-yl] methanone] | 1.4 nM | 2.8 nM | 8.5 nM |
| Cc1cc(Oc2ccccc2F)ccc1-n1ncc(C(=O)c2cc3cc(OCC(F)F)c(N4CCC(O)CC4)cc3[nH]2)c1N [Example 5-1-087, [5-amino-1-[4-(2-fluorophenoxy)-2-methylphenyl]pyrazol-4-yl]-[5-(2,2-difluoroethoxy)-6-(4-hydroxypiperidin-1-yl)-1H-indol-2-yl]methanone] | 0.77 nM | 3.9 nM | 13 nM |
| Cc1cc2cc(C(=O)c3cnn(-c4cnc(Oc5c(F)cccc5F)cc4C)c3N)[nH]c2cc1NS(=O)(=O)CC(=O)N1CCCC1 [Example 5-1-088, N-[2-[5-amino-1-[6-(2,6-difluorophenoxy)-4-methylpyridin-3-yl]pyrazole-4-carbonyl]-5-methyl-1H-indol-6-yl]-2-oxo-2-pyrrolidin-1-ylethanesulfonamide] | 2.2 nM | 2.8 nM | 27 nM |
